In patent US6992079B2, “Substituted 11-phenyl-dibenzazepine compounds useful for the treatment or prevention of diseases characterized by abnormal cell proliferation” (President Fellows of Harvard College, priority 1997, dated 2006):
Like-named read-outs stand apart in the source and are kept apart here.

How the values were obtained:
[1] = tested on: HT29; assay: In-Vitro Testing SRB panel: Colon Cancer; format: cell-based
[2] = tested on: H209 small lung cell carcinoma; assay: Mouse xenograft tumor growth; format: in vivo, SCID mice
[3] = tested on: SK-MEL-2; assay: In-Vitro Testing SRB panel: Melanoma; format: cell-based; conditions: SK-MEL-2
[4] = tested on: TK-10; assay: In-Vitro Testing SRB panel: Renal Cancer; format: cell-based; conditions: TK-10
[5] = tested on: MALM-3M; assay: In-Vitro Testing SRB panel: Melanoma; format: cell-based; conditions: MALM-3M
[6] = tested on: 786-0; assay: In-Vitro Testing SRB panel: Renal Cancer; format: cell-based; conditions: 786-0
[7] = tested on: NCI/ADR-RES; assay: In-Vitro Testing SRB panel: Breast Cancer; format: cell-based
[8] = In-Vitro Testing SRB panel: Renal Cancer; format: cell-based
[9] = tested on: A549/ATCC; format: cell-based
[10] = tested on: panel of human cancer cells; assay: In vitro screening, SRB, panel of 60 human cancer cell lines; format: cell-based
[11] = tested on: HCT-15; assay: In-Vitro Testing SRB panel: Colon Cancer; format: cell-based; conditions: HCT-15
[12] = Homo sapiens, read-out: LC50 (the source's name)

In the case of `COc1cccc2c1C(c1ccccc1Cl)c1cc(Cl)ccc1N(C(=O)c1ccc([N+](=O)[O-])cc1)C2` (stereo not shown) [Compound 31], the TGI ([1]; HI29) is reported as greater than 1.00E−04 Molar, the “Percent Growth” value ([1]; HI29, log10 conc -4 Molar) is reported as 16% and the “Percent Growth” value ([1]; HI29, log10 conc -5 Molar) is reported as 26%. The “Percent Growth” value ([1]; HI29, log10 conc -6 Molar) was 47%, the “Percent Growth” value ([1]; HI29, log10 conc -7 Molar) was 91% and the “Percent Growth” value ([1]; HI29, log10 conc -8 Molar) was 97%. For the same molecule, the GI50 ([1]; Homo sapiens, HT-29) was 0.866 µM, the CC50 ([1]; Homo sapiens, HT-29, HI29, read-out: LC50 (the source's name)) was greater than 100 µM and the tumor growth [2] was “showed inhibition of tumor growth”. It also gave a GI50 ([3]; Homo sapiens) of 79.3 µM, a CC50 [3, 12] greater than 100 µM and a TGI [3] greater than 1.00E−04 Molar. The “Percent Growth” value ([3]; log10 conc -4 Molar) was 47%, the “Percent Growth” value ([3]; log10 conc -5 Molar) was 78% and the “Percent Growth” value ([3]; log10 conc -6 Molar) was 102%. The “Percent Growth” value ([3]; log10 conc -7 Molar) was 99%, the “Percent Growth” value ([3]; log10 conc -8 Molar) was 101% and the GI50 ([4]; Homo sapiens) was 16.9 µM. For the same molecule, the CC50 [4, 12] was greater than 100 µM, the TGI [4] was greater than 1.00E−04 Molar and the “Percent Growth” value ([4]; log10 conc -4 Molar) was 34%. For the same molecule, the “Percent Growth” value ([4]; log10 conc -5 Molar) was 55%, the “Percent Growth” value ([4]; log10 conc -6 Molar) was 85% and the “Percent Growth” value ([4]; log10 conc -7 Molar) was 105%. For the same molecule, the “Percent Growth” value ([4]; log10 conc -8 Molar) was 102%, the CC50 [5, 12] was greater than 100 µM and the TGI [5] was greater than 1.00E−04 Molar. The “Percent Growth” value ([5]; log10 conc -4 Molar) was 97%, the “Percent Growth” value ([5]; log10 conc -5 Molar) was 96% and the “Percent Growth” value ([5]; log10 conc -6 Molar) was 42%. For the same molecule, the “Percent Growth” value ([5]; log10 conc -7 Molar) was 123%, the “Percent Growth” value ([5]; log10 conc -8 Molar) was 117% and the TGI [6] was greater than 1.00E−04 Molar. For the same molecule, the “Percent Growth” value ([6]; log10 conc -4 Molar) was 14%, the “Percent Growth” value ([6]; log10 conc -5 Molar) was 26% and the “Percent Growth” value ([6]; log10 conc -6 Molar) was 54%. The “Percent Growth” value ([6]; log10 conc -7 Molar) was 91%, the “Percent Growth” value ([6]; log10 conc -8 Molar) was 95% and the GI50 ([6]; Homo sapiens) was 1.35 µM. The CC50 [6, 12] was greater than 100 µM, the TGI [7] was greater than 1.00E−04 Molar and the GI50 ([7]; Homo sapiens) was 3.88 µM. The CC50 [7, 12] was greater than 100 µM, the “Percent Growth” value ([7]; log10 conc -4 Molar) was 12% and the “Percent Growth” value ([7]; log10 conc -5 Molar) was 27%. For the same molecule, the “Percent Growth” value ([7]; log10 conc -6 Molar) was 84%, the “Percent Growth” value ([7]; log10 conc -7 Molar) was 101% and the “Percent Growth” value ([7]; log10 conc -8 Molar) was 95%. The TGI ([8]; DO-31) was greater than 1.00E−04 Molar, the “Percent Growth” value ([8]; DO-31, log10 conc -4 Molar) was 1% and the “Percent Growth” value ([8]; DO-31, log10 conc -5 Molar) was 19%. For the same molecule, the “Percent Growth” value ([8]; DO-31, log10 conc -6 Molar) was 61%, the “Percent Growth” value ([8]; DO-31, log10 conc -7 Molar) was 104% and the “Percent Growth” value ([8]; DO-31, log10 conc -8 Molar) was 94%. For the same molecule, the GI50 ([8]; Homo sapiens) was 1.82 µM, the CC50 ([8]; Homo sapiens, DO-31, read-out: LC50 (the source's name)) was greater than 100 µM and the TGI ([9]; A549/ATCC) was greater than 1.00E−04 Molar. The “Percent Growth” value ([9]; A549/ATCC, log10 conc -4 Molar) was 3%, the “Percent Growth” value ([9]; A549/ATCC, log10 conc -5 Molar) was 11% and the “Percent Growth” value ([9]; A549/ATCC, log10 conc -6 Molar) was 61%. The “Percent Growth” value ([9]; A549/ATCC, log10 conc -7 Molar) was 98%, the “Percent Growth” value ([9]; A549/ATCC, log10 conc -8 Molar) was 94% and the GI50 ([9]; Homo sapiens, A549) was 1.67 µM. The CC50 ([9]; Homo sapiens, A549/ATCC, read-out: LC50 (the source's name)) was greater than 100 µM, the “activity against the human cell panel” value [10] was “exhibited activity against the human cell panel” and the TGI [11] was greater than 1.00E−04 Molar. For the same molecule, the “Percent Growth” value ([11]; log10 conc -4 Molar) was 15%, the “Percent Growth” value ([11]; log10 conc -5 Molar) was 20% and the “Percent Growth” value ([11]; log10 conc -6 Molar) was 34%. For the same molecule, the “Percent Growth” value ([11]; log10 conc -7 Molar) was 79%, the “Percent Growth” value ([11]; log10 conc -8 Molar) was 96% and the GI50 ([11]; Homo sapiens) was 0.444 µM. It also gave a CC50 [11, 12] greater than 100 µM.
